Data set [1] concerns the target T1, LFA-1 (CD11a) (Homo sapiens, UniProt P20701).
T1 construct: host or cells: Molt3 human T-cell leukemia line
Briefly: Antibody binding assay (FACS): anti-LFA-1 mAb (mouse IgG anti-human CD11a) binding to Molt3 T-cells after peptide incubation. It is filed as cell-based. To be noted: for Fluorescence, % change from control of the medium fluorescence intensity: mAb CD11a, average ± standard error of runs. The protocol:
A 1 ml quantity of the Molt3 inoculum was warmed to 37° C. and transferred by pipette into about 25 ml of a growth culture medium including RPMI 1640 lymphocyte growth medium (Fisher Scientific of St. Louis, Miss.) mixed with 10% by volume fetal calf serum, 100 units/ml penicillin, 100 μg/ml streptomycin and 2 mM glutamine. The inoculated culture was incubated for three to four days at 37° C. under a normal atmosphere having about 5% CO2 added thereto. This culture was capable of being maintained indefinitely by siphoning away the top (non-cell containing) layer and adding 50 ml (or more) of growth culture medium at intervals of three to four days.
An aqueous buffer solution including Dulbecco's phosphate buffered saline and bovine serum albumin ("-PBS/BSA solution") was prepared for use, and included a mixture of 200 mg KH2 PO4, 1.15 g Na2 HPO4, 100 mg CaCl2, 200 mg KCl, 100 mg MgCl2.6H2 O, 8 g NaCl, with distilled water added to a final 1 liter volume at room temperature, thus, forming a "PBS" solution of pH 7.4 to which was added 0.5% by weight bovine serum albumin.
An aliquot of about 7 ml was removed from the incubated culture medium and subjected to washing with the PBS/BSA solution. The washing procedure was initiated by placing the aliquot in a centrifuge (Model GT422 from Jouan, distributed Piruscio & Assoc. of Manchester, Miss.) at 1400 rpm for 6.5 minutes to separate the cells from the growth medium. The supernatant fluid was decanted, a 5 ml portion of PBS/BSA solution was transferred by pipette into the pellet, and the mixture was again centrifuged as before. The resulting supernatant fluid was decanted and the cells from the pellet were resuspended in PBS/BSA solution at a titer of about 1×10^6 cells/ml. A 500 μl portion of the solution containing the resuspended cells was placed in a microcentrifuge (Marathon 13K/M from Fisher Scientific of St. Louis, Miss.) at 3500 rpm for six minutes, to provide a washed pellet.
[…] The cells were incubated with the peptide cocktail at 37° C. for 45 minutes.
After incubation with the peptide cocktail, several antibodies were successively mixed into the incubated solution. A 75 μl portion of anti-IgM solution (a mixture of 10 μl of goat anti-human IgM stock purchased from Jackson Immuno Research of Westgrove, Pa.; and 65 μl of PBS/BSA solution) was added to the peptide cocktail for blocking of nonspecific binding of the secondary antibody. The resulting mixture was incubated for 10 minutes on ice. About 0.1 μg of a primary antibody including mouse IgG anti-human CD11a (purified according to conventional protocols at the University of Kansas Department of Pharmacology and Toxicology from an American Type Culture hybridoma cell line having Catalogue Number HB-202) was next stirred into the mixture, which was then incubated for 30 minutes at room temperature. The incubated mixture was placed in a microcentrifuge at 3500 rpm for six minutes to remove the cells from the mixture, and the cell pellet was washed two times by adding 500 μl aliquots of PBS/BSA solution and microfuging to remove non-bound antibodies from the cells as before. The resulting washed pellet was resuspended in 100 μl of a secondary antibody cocktail including 5 μl of fluorescein isothiocyanate ("FITC") labeled goat anti-mouse IgG (from CALTAG of South San Francisco, Calif.) and 95 μl of PBS/BSA solution. The resulting solution was incubated for 30 minutes at room temperature in the dark.
The incubated solution including the secondary antibody cocktail was microfuged at 3500 rpm for six minutes to remove the cells from the solution, and the cell pellet was washed two times with 500 μl portions of PBS/BSA solution, as before, to remove unbound antibodies. […]

Data set [2] has as its system Molt3 cells. Nature of the data set: Homotypic adhesion assay (MDHC-induced clumping of T-cells). To be noted: 10 μM MDHC. It is filed as cell-based, human. Also noted: key to Homotypic Adhesion Amount: Any sample having a score of "+++" or "++++" is considered to have a significant ability to modulate T-cell binding interaction; Any sample having a score of "+++" or "++++" is considered to have a significant ability to modulate T-cell binding interaction. The protocol: As before, the T-cells were Molt3 cells prepared in RPMI 1640 growth medium according to Example 2. An approximate 7 ml aliquot of the growth medium was centrifuged (Jouan Model GT422 at 1400 rpm for 6.5 minutes), and the supernatant fluid was decanted. The pellet was resuspended in the supernatant fluid at titer of about 1×10^6 cells/ml, with the excess supernatant fluid being retained for future resuspension of the peptides.
A 228 nmol quantity of the LJCRF-1 (Sequence ID No. 6) peptide described in Table 1 was diluted with the supernatant fluid to a 500 μl final volume, and filtered in microcentrifuge filter tubes (0.22 micron filter; 3500 rpm for 6 minutes). Serial dilution of the filtered peptide with supernatant fluid was conducted to yield five 125 μl peptide solutions to give respective concentrations of about 115 μM, 230 μM, 460 μM, 910 μM, and 1.82 mM. At each concentration, a 125 μl portion of the cell suspension was pipetted into each 125 μl portion of the peptide solutions to yield combined samples having a 250 μl volume. The 250 μl samples were seeded into individual wells in a 48-well tissue culture grade plate (from Costar of Cambridge, Md.) and incubated at 37° C. for 30 minutes. Each sample received 5 μl of 2,5-methyl dihydroxy cinnamate ("MDHC") for a 10 μM final concentration, and was subsequently incubated for about 10 hours at 37° C. MDHC induces intercellular clumping of human T-cells (Tibbetts, Butler, and Benedict, submitted) by activating the LFA/ICAM binding interaction between respective cells.
Pictures were taken of five random fields per sample using an Olympus photomicroscope having a 0.8 mm field at 400×magnification, and a 3.2 mm field of view at 100×magnification. The amount of clumping observed was quantified by determining the mean number of clumps per field ± a standard error.
FIGS. 5, 6, and 7 replicate photographs taken from exemplary peptide assays. FIG. 5 is a photograph of the control sample having no peptides and no MDHC added, from which essentially no clumping of cells is observed. […] Any sample having a score of "+++" or "++++" is considered to have a significant ability to modulate T-cell binding interaction. This is similar to results obtained by incubating similarly treated cells with antibody against either LFA or ICAM.
The homotypic adhesion assay assesses the actual ability of a candidate peptide to modulate the ability of T-cells to adhere with one another.

In data set [3] the test system is Molt3 cells. Briefly: Cell metabolic assay (MTT). The format is cell-based. The protocol:
After taking the photographs in Example 3 (and in some instances no photographs were taken), cell metabolic activity was assessed by an MTT assay. A 37.5 μl portion of MTT dye (purchased from SIGMA of St. Louis, Mo.), i.e., 3-[4,5-dimethyl thiazole-2yl]-2, 5- diphenyl tetrazolium bromide; thiazolyl blue) was added to each well, and incubated with the cells at 37° C. for about six hours. After incubation, a 250 μl quantity of a MTT solubilization solution (of a type that may be purchased from either Fischer Scientific of St. Louis, Mo. or BCD Labs of Lawrence, Kans.) was added to each well, and incubated with the cells at room temperature overnight. In the morning, the spectrophotometric absorption of each plate was determined at 570 nm in a microplate ELISA reader manufactured by Cambridge Technologies of Water-town, Mass., in order to assess cell viability as an indicator of potential peptide toxicity.

Data set [4] concerns the target T2, ICAM-1 (CD54) (Homo sapiens, UniProt P05362).
T2 construct: host or cells: Molt3 human T-cell leukemia line
Briefly: Antibody binding assay (FACS): anti-ICAM-1 mAb (mouse IgG anti-human CD54) binding to Molt3 T-cells after peptide incubation. The format is cell-based. To be noted: mAb CD54; peptide 4550 μM; average ± standard error of runs.

Setting [5] is: peptide 4550 μM, negative = blocking.

Like-named read-outs stand apart in the source and are kept apart here.

T1 sequence (P20701 26-1170): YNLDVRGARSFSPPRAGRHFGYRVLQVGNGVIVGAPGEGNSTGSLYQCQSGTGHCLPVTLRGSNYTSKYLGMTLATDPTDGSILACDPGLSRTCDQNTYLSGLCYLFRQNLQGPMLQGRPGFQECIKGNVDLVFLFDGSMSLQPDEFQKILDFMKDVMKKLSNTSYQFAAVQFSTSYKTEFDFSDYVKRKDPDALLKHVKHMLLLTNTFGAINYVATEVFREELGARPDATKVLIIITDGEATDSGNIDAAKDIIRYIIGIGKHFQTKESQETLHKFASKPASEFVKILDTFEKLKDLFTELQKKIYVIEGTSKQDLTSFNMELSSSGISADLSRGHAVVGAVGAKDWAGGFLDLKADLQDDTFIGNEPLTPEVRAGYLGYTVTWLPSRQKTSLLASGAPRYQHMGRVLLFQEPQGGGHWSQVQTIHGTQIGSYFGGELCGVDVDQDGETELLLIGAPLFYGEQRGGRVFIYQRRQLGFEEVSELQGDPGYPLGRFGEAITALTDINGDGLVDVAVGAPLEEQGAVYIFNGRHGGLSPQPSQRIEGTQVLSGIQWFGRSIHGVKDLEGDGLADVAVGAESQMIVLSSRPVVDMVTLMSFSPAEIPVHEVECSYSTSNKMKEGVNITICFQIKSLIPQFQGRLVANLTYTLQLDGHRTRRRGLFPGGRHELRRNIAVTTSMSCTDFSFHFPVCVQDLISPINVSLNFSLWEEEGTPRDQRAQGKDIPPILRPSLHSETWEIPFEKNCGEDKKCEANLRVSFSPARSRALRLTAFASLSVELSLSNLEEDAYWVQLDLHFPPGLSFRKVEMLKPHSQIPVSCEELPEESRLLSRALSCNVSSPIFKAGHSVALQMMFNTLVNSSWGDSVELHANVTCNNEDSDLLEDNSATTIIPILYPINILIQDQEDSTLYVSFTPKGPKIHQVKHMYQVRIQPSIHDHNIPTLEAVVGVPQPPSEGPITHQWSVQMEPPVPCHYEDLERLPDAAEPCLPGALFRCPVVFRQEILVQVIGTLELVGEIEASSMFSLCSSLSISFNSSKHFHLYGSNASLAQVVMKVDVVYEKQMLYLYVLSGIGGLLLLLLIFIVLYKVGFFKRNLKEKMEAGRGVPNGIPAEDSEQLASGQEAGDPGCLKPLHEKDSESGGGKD
T1 sequence (P05107 23-769 partner): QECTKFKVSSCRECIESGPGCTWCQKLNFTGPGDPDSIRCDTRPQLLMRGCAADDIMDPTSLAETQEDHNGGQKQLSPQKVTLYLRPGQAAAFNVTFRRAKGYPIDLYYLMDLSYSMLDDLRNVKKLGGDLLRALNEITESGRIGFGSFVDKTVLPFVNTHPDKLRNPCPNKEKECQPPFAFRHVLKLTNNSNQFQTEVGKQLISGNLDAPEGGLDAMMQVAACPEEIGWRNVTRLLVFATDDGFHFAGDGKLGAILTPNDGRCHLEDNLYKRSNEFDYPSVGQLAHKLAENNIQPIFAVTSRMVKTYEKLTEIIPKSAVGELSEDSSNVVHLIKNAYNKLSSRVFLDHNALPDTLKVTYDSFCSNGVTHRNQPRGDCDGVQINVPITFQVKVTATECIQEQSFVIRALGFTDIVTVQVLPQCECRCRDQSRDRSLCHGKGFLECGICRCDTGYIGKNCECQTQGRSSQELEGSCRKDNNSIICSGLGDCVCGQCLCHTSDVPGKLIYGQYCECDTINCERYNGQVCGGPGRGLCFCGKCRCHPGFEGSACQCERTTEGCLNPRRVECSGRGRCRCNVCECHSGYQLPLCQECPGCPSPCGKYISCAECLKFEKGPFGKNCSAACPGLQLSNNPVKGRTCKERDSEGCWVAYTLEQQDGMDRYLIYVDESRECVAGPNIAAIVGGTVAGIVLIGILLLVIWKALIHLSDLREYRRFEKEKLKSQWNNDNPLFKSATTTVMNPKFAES
T2 sequence (P05362 28-532): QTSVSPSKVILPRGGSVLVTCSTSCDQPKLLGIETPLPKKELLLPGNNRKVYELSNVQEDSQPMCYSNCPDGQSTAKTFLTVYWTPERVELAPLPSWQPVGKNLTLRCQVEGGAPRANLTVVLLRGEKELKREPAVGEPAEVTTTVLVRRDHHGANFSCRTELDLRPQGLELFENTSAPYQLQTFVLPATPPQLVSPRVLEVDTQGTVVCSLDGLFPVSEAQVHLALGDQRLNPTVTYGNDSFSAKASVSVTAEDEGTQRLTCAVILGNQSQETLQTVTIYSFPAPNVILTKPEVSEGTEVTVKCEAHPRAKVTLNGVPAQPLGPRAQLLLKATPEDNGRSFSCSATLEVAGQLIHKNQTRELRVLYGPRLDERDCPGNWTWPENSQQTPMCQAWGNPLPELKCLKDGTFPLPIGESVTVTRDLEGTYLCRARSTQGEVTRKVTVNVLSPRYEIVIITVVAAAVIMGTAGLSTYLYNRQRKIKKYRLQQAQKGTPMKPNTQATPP

As to “LJCRF-1: ICAM-1 based short-chain peptide, Sequence ID No. 6 (QTSVSPSKVILPRGGSVLVTG)”, the “Fluorescence, % change from control of the medium fluorescence intensity” value (“Fluorescence, % change from control” below) is on record as -12 ± 2% in data set [1] (peptide 2275 μM) and -29 ± 3% in data set [1] (setting [5]). In data set [1] (single above-average run (FIGS. 2, 3), peptide 4550 μM, anti-CD11a), this substance returned a blocking efficiency of 65%. Besides, the “Homotypic Adhesion Amount” value in data set [2] (peptide 460 μM) and in data set [2] (peptide 1820 μM) was “+++” in each case. Moreover, the “Homotypic Adhesion Effect” value in data set [2] (peptide 460 μM), in data set [2] (peptide 910 μM) and in data set [2] (peptide 1820 μM) was “Block” in each case. Further, the “MTT % Viability” value in data set [3] (peptide 460 μM) amounted to 93%; in data set [3] (peptide 910 μM) it was 92%; in data set [3] (peptide 1820 μM), 66%.
Take “LJCRF-3: ICAM-1 derived short-chain peptide, Sequence ID No. 12 (KELLLPGNNRKVYELSNVQEDSQP)”: the “Fluorescence, % change from control” value in data set [1] (setting [5]) was -13 ± 19%. In addition, in data set [3], the “MTT % Viability” value was determined as 38%.
Take “LJCRF-5: LFA-1α derived short-chain peptide, Sequence ID No. 17 (GVDVDQDGETELIGAPLFYGEQRG)”: the “Fluorescence, % change from control” value in data set [4] is recorded as -17%. Moreover, the “Homotypic Adhesion Effect” value in data set [2] (peptide 115 μM), in data set [2] (peptide 230 μM), in data set [2] (peptide 460 μM), in data set [2] (peptide 910 μM) and in data set [2] (peptide 1820 μM) was “Block” throughout. Further, the “Homotypic Adhesion Amount” value in data set [2] (peptide 910 μM) and in data set [2] (peptide 1820 μM) was “++++” each time. For the same substance, the “MTT % Viability” value in data set [3] (peptide 115 μM) amounted to 95%; in data set [3] (peptide 230 μM), 84%; in data set [3] (peptide 460 μM), 81%; in data set [3] (peptide 910 μM) it was 52%; in data set [3] (peptide 1820 μM) it was 20%. In addition, in data set [3] (peptide 1820 μM), the “metabolic activity by MTT” value is reported as “decrease in metabolic activity”.
As to “LJCRF-6: LFA-1α (insert) based short-chain peptide, Sequence ID No. 18 (ITDGEATDSGNIDAAKDIIYIIGI)”, the “Fluorescence, % change from control” value in data set [4] is -4%. The “Homotypic Adhesion Effect” value in data set [2] (peptide 910 μM) was “almost total inhibition”. For the same substance, in data set [2] (peptide 1820 μM), the “Homotypic Adhesion Amount” value was “+++” and the “Homotypic Adhesion Effect” value is reported as “Block”.
Consider “MC-1-80: ICAM-1 derived short-chain peptide, Sequence ID No. 9 (LPRGGSVLVTG)”, for which the “metabolic activity / cellular respiration by MTT” value in data set [3] (peptide 910 μM) is on record as “enhanced”.
On to “SC-3-223: LFA-1β derived peptide, identical to LJCRF-4 (Sequence ID No. 16), tested separately (DLSYSLDDLRNVKKLGGDLLRALNE)”, for which the “Homotypic Adhesion Effect” value in data set [2] (peptide 115 μM), in data set [2] (peptide 230 μM), in data set [2] (peptide 460 μM), in data set [2] (peptide 910 μM) and in data set [2] (peptide 1820 μM) was “Block” each time. Moreover, the “Homotypic Adhesion Amount” value in data set [2] (peptide 230 μM) is given as “+++”; in data set [2] (peptide 460 μM), “+++”; in data set [2] (peptide 910 μM), “++++”; in data set [2] (peptide 1820 μM), “++++”. For the same substance, the “MTT % Viability” value in data set [3] (peptide 115 μM) is 103%; in data set [3] (peptide 230 μM), 109%; in data set [3] (peptide 460 μM) it was 112%; in data set [3] (peptide 910 μM), 108%; in data set [3] (peptide 1820 μM), 75%.

For the origin of these results see US5863889A, “ICAM-1/LFA-1 short-chain peptides and method of using same” (The University of Kansas, priority 1996, dated 1999).
